This note sets out measurements from ChEMBL document CHEMBL1152560, “Substituted 2-arylbenzothiazoles as kinase inhibitors: hit-to-lead optimization” (Bioorg Med Chem, 2009).

Assay [1] deals with CDK8/Cyclin C (Homo sapiens) (UniProt P49336+P24863). The assay can be described thus: Residual activity of CDK8/Cyclin C at 1 uM by microplate scintillation counting. Format: protein-complex assay.
For assay [2], the target named is Tyrosine-protein kinase ABL1 (Homo sapiens) (UniProt P00519). In words: Residual activity of wild type ABL1 at 10 uM by microplate scintillation counting.
The target in assay [3] is T1, Serine/threonine-protein kinase TAO2 (Homo sapiens) (UniProt Q9UL54).
T1 sequence (whole entry): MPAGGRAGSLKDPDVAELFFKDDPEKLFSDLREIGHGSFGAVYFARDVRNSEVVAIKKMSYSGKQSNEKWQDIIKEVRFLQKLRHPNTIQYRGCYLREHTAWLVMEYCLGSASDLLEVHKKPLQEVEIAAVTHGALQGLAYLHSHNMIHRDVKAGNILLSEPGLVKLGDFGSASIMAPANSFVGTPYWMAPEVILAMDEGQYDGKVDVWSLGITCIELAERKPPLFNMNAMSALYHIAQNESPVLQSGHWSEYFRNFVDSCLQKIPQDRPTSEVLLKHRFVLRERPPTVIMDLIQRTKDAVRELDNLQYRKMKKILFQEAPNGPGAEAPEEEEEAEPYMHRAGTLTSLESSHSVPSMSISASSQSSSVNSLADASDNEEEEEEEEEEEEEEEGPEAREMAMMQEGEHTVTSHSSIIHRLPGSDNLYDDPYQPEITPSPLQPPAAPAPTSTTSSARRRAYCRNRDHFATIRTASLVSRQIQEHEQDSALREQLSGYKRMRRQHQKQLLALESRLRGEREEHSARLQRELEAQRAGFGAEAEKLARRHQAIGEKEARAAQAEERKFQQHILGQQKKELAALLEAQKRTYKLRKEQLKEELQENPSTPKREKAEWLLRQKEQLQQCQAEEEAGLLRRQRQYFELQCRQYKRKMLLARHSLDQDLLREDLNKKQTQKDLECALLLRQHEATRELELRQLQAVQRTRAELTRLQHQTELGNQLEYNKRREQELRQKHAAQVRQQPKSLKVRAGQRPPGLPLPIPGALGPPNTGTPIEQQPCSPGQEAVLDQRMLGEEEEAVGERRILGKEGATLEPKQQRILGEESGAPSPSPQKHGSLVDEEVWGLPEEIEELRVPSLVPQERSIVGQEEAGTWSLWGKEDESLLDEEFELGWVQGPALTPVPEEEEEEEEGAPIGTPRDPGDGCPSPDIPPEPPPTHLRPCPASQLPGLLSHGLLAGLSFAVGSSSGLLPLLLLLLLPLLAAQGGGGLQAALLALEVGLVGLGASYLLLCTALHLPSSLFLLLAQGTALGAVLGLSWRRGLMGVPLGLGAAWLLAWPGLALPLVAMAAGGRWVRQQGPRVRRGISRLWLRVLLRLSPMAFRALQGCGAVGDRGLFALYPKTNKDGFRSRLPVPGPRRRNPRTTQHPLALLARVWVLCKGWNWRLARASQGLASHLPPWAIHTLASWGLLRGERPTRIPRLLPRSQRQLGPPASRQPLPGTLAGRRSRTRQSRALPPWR
The assay can be described thus: Residual activity of TAOK2 at 0.1 uM by microplate scintillation counting.

Assay [4] deals with Cyclin-dependent kinase 4/cyclin D1 (Homo sapiens) (UniProt P11802+P24385). The assay can be described thus: Residual activity of CDK4/Cyclin D1 at 1 uM by microplate scintillation counting. Format: protein-complex assay.
Assay [5] deals with RAC-alpha serine/threonine-protein kinase (Homo sapiens) (UniProt P31749). The assay can be described thus: Residual activity of AKT1 at 10 uM by microplate scintillation counting.
Assay [6] has as its target T2, Megakaryocyte-associated tyrosine-protein kinase (Homo sapiens) (UniProt P42679).
T2 sequence (whole entry): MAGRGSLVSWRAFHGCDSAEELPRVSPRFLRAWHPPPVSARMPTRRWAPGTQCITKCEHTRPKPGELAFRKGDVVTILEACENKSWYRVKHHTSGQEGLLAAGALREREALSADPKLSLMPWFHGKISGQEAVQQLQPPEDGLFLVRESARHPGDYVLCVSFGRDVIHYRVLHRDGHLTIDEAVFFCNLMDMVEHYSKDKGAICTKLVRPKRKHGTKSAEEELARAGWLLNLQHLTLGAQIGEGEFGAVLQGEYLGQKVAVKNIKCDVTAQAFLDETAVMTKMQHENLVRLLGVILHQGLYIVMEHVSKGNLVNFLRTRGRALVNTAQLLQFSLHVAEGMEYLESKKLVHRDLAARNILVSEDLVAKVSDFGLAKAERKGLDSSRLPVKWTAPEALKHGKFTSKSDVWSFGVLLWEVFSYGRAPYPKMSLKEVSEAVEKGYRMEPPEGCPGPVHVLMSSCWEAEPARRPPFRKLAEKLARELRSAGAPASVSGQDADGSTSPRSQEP
In words: Residual activity of MATK at 0.1 uM by microplate scintillation counting.

Assay [7] concerns the target Tyrosine-protein kinase Lck (Homo sapiens) (UniProt P06239). In words: Residual activity of LCK at 10 uM by microplate scintillation counting.
For assay [8], the system named is Fibroblast growth factor receptor 1 (Homo sapiens), P11362 [V561M]. The assay can be described thus: Residual activity of FGFR1 V561M mutant at 0.1 uM by microplate scintillation counting.
In assay [9] the target is T3, Protein kinase C zeta type (Homo sapiens) (UniProt Q05513).
T3 sequence (whole entry): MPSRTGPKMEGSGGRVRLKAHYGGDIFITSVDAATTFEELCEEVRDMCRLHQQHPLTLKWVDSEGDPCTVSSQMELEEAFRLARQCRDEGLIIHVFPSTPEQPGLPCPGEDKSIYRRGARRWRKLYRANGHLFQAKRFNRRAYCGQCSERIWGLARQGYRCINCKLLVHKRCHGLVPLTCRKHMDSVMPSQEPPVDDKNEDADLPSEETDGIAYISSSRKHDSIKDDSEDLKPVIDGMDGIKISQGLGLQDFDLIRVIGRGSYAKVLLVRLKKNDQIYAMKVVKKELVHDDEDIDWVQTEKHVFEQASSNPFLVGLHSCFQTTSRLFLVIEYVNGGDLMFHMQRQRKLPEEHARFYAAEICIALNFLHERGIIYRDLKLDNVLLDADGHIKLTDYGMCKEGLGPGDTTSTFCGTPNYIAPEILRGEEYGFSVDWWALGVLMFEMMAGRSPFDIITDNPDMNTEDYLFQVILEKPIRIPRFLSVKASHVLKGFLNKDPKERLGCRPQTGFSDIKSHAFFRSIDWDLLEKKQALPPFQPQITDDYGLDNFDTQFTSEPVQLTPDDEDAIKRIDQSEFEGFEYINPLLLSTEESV
The assay can be described thus: Residual activity of PKCzeta at 0.1 uM by microplate scintillation counting.

In assay [10] the test system is Mast/stem cell growth factor receptor Kit (Homo sapiens), P10721 [T670I]. The assay can be described thus: Residual activity of KIT T670I mutant at 0.1 uM by microplate scintillation counting.
For assay [11], the target named is Calcium/calmodulin-dependent protein kinase type II subunit beta (Homo sapiens) (UniProt Q13554). In words: Residual activity of CAMK2B at 10 uM by microplate scintillation counting.
Chain of Calcium/calmodulin-dependent protein kinase type II subunit beta (Homo sapiens) (Q13554 whole entry): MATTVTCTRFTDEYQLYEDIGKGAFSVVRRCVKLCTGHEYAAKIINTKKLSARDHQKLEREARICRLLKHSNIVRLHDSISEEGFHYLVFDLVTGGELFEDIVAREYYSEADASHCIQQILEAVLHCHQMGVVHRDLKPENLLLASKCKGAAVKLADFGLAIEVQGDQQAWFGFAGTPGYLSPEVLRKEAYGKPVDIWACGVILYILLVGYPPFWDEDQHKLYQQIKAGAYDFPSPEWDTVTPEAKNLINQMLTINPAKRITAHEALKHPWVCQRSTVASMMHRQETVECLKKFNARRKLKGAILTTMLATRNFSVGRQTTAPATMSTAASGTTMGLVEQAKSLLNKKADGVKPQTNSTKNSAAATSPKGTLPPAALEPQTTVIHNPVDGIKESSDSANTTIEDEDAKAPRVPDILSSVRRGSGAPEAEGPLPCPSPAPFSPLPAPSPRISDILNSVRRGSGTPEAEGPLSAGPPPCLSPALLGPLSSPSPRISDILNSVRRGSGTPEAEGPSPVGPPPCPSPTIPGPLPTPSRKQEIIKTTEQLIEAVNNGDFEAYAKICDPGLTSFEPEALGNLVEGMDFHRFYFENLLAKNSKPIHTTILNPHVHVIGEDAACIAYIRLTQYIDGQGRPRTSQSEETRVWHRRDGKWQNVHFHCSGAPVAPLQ

Chain of Fibroblast growth factor receptor 1 (Homo sapiens), P11362 [V561M] (P11362 whole entry V561M): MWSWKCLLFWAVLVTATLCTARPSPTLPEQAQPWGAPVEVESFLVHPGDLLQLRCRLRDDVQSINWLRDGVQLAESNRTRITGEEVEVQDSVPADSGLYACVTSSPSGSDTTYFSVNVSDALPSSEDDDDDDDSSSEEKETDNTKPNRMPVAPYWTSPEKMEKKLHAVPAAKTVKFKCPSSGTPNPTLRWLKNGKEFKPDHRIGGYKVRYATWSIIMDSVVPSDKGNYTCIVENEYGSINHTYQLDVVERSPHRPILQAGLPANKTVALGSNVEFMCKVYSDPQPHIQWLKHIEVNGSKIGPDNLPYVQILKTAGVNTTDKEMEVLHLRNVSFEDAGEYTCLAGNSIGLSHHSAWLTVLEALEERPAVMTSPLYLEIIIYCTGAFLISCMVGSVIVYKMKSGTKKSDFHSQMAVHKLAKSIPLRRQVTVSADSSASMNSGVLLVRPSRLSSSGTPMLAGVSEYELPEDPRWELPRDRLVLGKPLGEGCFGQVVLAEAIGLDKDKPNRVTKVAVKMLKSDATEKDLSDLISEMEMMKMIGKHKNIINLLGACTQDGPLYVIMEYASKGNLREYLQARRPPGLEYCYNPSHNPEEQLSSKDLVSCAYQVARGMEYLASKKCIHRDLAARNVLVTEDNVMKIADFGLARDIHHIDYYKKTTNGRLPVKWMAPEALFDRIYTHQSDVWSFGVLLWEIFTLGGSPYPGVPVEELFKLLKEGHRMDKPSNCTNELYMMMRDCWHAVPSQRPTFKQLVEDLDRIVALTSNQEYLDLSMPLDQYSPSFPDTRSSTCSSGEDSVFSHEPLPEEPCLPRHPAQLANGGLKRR
Chain of Mast/stem cell growth factor receptor Kit (Homo sapiens), P10721 [T670I] (P10721 whole entry T670I): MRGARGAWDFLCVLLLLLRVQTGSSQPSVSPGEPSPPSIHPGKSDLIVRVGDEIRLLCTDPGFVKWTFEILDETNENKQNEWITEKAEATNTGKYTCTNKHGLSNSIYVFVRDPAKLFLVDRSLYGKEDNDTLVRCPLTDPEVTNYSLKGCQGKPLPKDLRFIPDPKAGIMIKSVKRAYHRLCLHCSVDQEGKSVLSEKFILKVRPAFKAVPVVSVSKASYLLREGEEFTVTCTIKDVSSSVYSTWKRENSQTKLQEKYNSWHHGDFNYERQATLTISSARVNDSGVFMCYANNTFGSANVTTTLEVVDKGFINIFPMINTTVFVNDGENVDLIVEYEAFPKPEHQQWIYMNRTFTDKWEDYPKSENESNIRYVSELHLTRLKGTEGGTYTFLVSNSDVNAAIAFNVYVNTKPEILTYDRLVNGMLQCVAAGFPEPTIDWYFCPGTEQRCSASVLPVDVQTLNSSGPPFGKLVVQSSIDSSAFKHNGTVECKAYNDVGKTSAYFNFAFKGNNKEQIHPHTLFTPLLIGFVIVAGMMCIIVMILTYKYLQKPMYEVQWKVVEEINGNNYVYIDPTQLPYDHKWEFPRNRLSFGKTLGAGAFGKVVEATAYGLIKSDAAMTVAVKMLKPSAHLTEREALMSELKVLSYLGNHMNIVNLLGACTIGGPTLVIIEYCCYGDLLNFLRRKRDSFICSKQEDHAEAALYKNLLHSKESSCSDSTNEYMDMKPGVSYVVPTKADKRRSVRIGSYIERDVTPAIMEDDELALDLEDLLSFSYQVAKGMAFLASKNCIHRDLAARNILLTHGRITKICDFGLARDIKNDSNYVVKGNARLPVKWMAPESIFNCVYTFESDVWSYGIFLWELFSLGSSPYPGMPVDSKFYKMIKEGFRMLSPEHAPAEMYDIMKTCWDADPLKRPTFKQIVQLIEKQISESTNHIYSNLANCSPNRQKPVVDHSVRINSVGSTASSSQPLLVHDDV
Chain of Tyrosine-protein kinase ABL1 (Homo sapiens) (P00519 whole entry): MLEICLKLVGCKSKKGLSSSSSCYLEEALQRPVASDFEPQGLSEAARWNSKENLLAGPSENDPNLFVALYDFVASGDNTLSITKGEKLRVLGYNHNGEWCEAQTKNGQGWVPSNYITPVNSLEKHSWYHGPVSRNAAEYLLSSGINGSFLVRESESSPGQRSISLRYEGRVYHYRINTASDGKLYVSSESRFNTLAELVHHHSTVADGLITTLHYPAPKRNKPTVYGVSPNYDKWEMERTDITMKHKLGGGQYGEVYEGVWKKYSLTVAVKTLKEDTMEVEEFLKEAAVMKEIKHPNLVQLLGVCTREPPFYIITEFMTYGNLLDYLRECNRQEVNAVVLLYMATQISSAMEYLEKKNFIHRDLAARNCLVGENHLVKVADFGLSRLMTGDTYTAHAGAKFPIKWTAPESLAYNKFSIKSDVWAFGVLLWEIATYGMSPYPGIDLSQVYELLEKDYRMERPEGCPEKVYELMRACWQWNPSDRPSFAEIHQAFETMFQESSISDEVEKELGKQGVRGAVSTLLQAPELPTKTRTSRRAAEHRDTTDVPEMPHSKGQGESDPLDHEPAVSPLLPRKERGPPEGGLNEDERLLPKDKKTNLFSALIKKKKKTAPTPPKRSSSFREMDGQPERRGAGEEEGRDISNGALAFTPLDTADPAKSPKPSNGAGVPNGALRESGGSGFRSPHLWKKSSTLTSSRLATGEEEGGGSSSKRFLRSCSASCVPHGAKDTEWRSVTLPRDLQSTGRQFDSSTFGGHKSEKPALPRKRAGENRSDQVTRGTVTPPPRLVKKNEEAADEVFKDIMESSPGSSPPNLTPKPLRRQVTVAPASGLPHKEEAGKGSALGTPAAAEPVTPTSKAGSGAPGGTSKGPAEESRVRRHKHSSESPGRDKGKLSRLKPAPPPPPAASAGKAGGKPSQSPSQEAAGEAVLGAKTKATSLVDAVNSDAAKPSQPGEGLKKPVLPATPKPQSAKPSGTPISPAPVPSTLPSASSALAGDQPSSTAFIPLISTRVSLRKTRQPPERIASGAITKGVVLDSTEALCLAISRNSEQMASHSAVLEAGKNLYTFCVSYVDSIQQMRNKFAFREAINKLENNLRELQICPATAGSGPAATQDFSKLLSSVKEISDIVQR
Chain of RAC-alpha serine/threonine-protein kinase (Homo sapiens) (P31749 whole entry): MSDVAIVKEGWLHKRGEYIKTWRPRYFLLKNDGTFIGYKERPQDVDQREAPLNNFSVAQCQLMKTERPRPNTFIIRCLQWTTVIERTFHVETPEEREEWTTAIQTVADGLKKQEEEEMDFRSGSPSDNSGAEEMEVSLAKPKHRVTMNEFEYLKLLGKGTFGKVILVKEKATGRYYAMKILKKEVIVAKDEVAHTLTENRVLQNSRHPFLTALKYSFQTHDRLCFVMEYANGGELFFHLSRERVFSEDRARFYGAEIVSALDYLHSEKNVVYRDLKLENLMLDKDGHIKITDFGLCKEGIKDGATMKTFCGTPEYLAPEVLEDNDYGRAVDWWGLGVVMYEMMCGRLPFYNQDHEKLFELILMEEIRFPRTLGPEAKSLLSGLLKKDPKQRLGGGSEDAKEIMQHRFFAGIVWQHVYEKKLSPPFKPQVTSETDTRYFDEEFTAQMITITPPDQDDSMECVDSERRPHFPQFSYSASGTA
Chain of Tyrosine-protein kinase Lck (Homo sapiens) (P06239 2-509 limits assumed): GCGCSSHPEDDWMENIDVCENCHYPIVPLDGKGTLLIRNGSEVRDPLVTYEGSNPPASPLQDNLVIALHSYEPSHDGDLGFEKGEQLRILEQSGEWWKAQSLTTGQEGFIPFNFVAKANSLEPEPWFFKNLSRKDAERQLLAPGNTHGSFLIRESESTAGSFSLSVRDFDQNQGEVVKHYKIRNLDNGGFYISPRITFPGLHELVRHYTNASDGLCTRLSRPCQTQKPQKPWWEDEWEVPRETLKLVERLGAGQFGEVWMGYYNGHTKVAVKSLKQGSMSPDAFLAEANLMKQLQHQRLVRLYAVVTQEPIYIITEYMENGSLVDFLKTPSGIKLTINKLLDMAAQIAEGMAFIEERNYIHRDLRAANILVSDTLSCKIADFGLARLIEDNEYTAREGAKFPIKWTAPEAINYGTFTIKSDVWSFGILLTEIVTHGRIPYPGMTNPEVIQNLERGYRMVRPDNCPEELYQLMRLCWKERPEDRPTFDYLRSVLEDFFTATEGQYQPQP

On to `COc1cc2c(Oc3ccc(-c4nc5ccccc5s4)cc3F)ncnc2cc1OCCCN1CCN(C)CC1`, for which the residual activity – broadly, the signal under treatment as a percentage of the control signal – stood at 81% in [1]; 26% in assay [2]; 108% in assay [3]; 94% in assay [4]; 105% in assay [5]; 96% in assay [6]. Also, the residual activity in assay [7] turned out to be 2%; in [8] it was 93%; in [9] it was 97%; in assay [10], 97%; in assay [11], 58%.
As for `COc1cc2c(Oc3ccc(-c4nc5ccccc5s4)cc3)ncnc2cc1OCCCN1CCN(C)CC1`, the residual activity was 79% in [1]; 28% in [2]; 92% in [3]; 100% in assay [4]; 120% in [5]; 107% in [6]. In addition, the residual activity was 4% in assay [7]; 109% in [8]; 85% in [9]; 103% in assay [10]; 67% in assay [11].
On to `COc1cc2c(Oc3ccc(-c4nc5ccccc5s4)cc3)ncnc2cc1OCCCN1CCCC1`, for which the residual activity in assay [1] is 95%; in assay [2], 41%; in assay [3], 102%; in assay [4], 98%; in assay [5] it was 87%; in assay [6] it was 109%. The residual activity in assay [7] came to 6%; in [8], 108%; in assay [9], 107%; in assay [10], 113%; in [11] it was 56%.
